This passage reports IC50 results from patent US10259818B2, “Bicyclic azaheterocyclobenzylamines as PI3K inhibitors” (Incyte Corporation, priority 2012, dated 2019).

Where a name gives a salt, the structure may show the parent alone. Bounds are passed on as bounds.

This experiment deals with SUDHL-6 cell line (diffuse large B cell lymphoma). Description: SUDHL-6 cell proliferation assay (Example B3). Format: cell-based. The settings on record: SUDHL-6 cells, 3 days, Cell Titer-GLO. The procedure: Example B3: SUDHL-6 Cell Proliferation Assay
SUDHL-6 cell line (diffuse large B cell lymphoma) was purchased from ATCC (Manassas, Va.) and maintained in the culture medium recommended (RPMI and 10% FBS). To measure the anti-proliferation activity of the compounds through ATP quantitation, the SUDHL-6 cells was plated with the culture medium (5000 cells/well/per 200 μl) into 96-well polystyrene clear black tissue culture plate (Greiner-bio-one through VWR, NJ) in the presence or absence of a concentration range of test compounds. After 3 days, Cell Titer-GLO Luminescent (Promega, Madison, Wis.) cell culture agent was added to each well for 10 minutes at room temperature to stabilize the luminescent signal. This determines the number of viable cells in culture based on quantitation of the ATP present, which signals the presence of metabolically active cells. Luminescence was measured with the TopCount 384 (Packard Bioscience through Perkin Elmer, Boston, Mass.). […] IC50 data for the Examples is presented in Table 4 determined by the assay of Example B3.

`Cc1nn(C(C)c2cc(Cl)c(C#N)c3c2OC(C)CN(C2CN(S(=O)(=O)N(C)C)C2)C3)c2ncnc(N)c12` (single isomer, unassigned) [Example 106, 3-[9-[1-(4-amino-3-methyl-1H-pyrazolo[3,4-d]pyrimidin-1-yl)ethyl]-7-chloro-6-cyano-2-methyl-2,3-dihydro-1,4-benzoxazepin-4(5H)-yl]-N,N-dimethylazetidine-1-sulfonamide]: the half-maximal inhibitory concentration (IC50) (commonly the concentration at which inhibition is half-maximal) was at most 500 nM. In turn, `Cc1nn(C(C)c2cc(Cl)c(C#N)c3c2OC(C)CN(CC#N)C3)c2ncnc(N)c12` (single isomer, unassigned) [Example 108, 9-[1-(4-amino-3-methyl-1H-pyrazolo[3,4-d]pyrimidin-1-yl)ethyl]-7-chloro-4-(cyanomethyl)-2-methyl-2,3,4,5-tetrahydro-1,4-benzoxazepine-6-carbonitrile] gave an IC50 (Homo sapiens, SU-DHL-6, 72 h) of at most 500 nM. The same measure, in the same setting: the value for `Cc1nn(C(C)c2cc(Cl)c(C#N)c3c2OC(C)CN(CC(N)=O)C3)c2ncnc(N)c12` (single isomer, unassigned) [Example 110, 2-[9-[1-(4-amino-3-methyl-1H-pyrazolo[3,4-d]pyrimidin-1-yl)ethyl]-7-chloro-6-cyano-2-methyl-2,3-dihydro-1,4-benzoxazepin-4(5H)-yl]acetamide] was at most 500 nM; that for `COCCN1Cc2c(C#N)c(Cl)cc(C(C)n3nc(C)c4c(N)ncnc43)c2OC(C)C1` (single isomer, unassigned) [Example 112, 9-[1-(4-amino-3-methyl-1H-pyrazolo[3,4-d]pyrimidin-1-yl)ethyl]-7-chloro-4-(2-methoxyethyl)-2-methyl-2,3,4,5-tetrahydro-1,4-benzoxazepine-6-carbonitrile] was at most 500 nM; that for `CNC(=O)C1CC(N2Cc3c(C#N)c(Cl)cc(C(C)n4nc(C)c5c(N)ncnc54)c3OC(C)C2)C1` (single isomer, unassigned) [Example 114, 3-[9-[1-(4-amino-3-methyl-1H-pyrazolo[3,4-d]pyrimidin-1-yl)ethyl]-7-chloro-6-cyano-2-methyl-2,3-dihydro-1,4-benzoxazepin-4(5H)-yl]-N-methylcyclobutane-carboxamide] was at most 500 nM.

In turn, `CNC(=O)C1CC(N2Cc3c(C#N)c(Cl)cc(C(C)n4nc(C)c5c(N)ncnc54)c3OC(C)C2)C1` (single isomer, unassigned) [Example 115, 3-[9-[1-(4-amino-3-methyl-1H-pyrazolo[3,4-d]pyrimidin-1-yl)ethyl]-7-chloro-6-cyano-2-methyl-2,3-dihydro-1,4-benzoxazepin-4(5H)-yl]-N-methylcyclobutane-carboxamide] had an IC50 of at most 500 nM. Take `Cc1c(Cl)cc(C(C)n2nc(C)c3c(N)ncnc32)c2c1CN(C1CN(C(=O)OC(C)(C)C)C1)CCO2` (stereo not drawn) [Example 3, tert-Butyl 3-[9-[1-(4-amino-3-methyl-1H-pyrazolo[3,4-d]pyrimidin-1-yl)ethyl]-7-chloro-6-methyl-2,3-dihydro-1,4-benzoxazepin-4(5H)-yl]azetidine-1-carboxylate]: the IC50 (Homo sapiens, SU-DHL-6, 72 h) was at most 500 nM. For the setting “Homo sapiens, SU-DHL-6, 72 h”, `CC(=O)N1CC(N2CCOc3c(C(C)n4nc(C)c5c(N)ncnc54)cc(Cl)c(C)c3C2)C1` (stereo not drawn) [Example 4, 1-{1-[4-(1-Acetylazetidin-3-yl)-7-chloro-6-methyl-2,3,4,5-tetrahydro-1,4-benzoxazepin-9-yl]ethyl}-3-methyl-1H-pyrazolo[3,4-d]pyrimidin-4-amine] showed a concentration for half-maximal inhibition (IC50) of at most 500 nM. Same read-out and setting: the value for `Cc1c(Cl)cc(C(C)n2nc(C)c3c(N)ncnc32)c2c1CN(C1CCC1)CCO2` (stereo not drawn) [Example 5, 1-[1-(7-Chloro-4-cyclobutyl-6-methyl-2,3,4,5-tetrahydro-1,4-benzoxazepin-9-yl)ethyl]-3-methyl-1H-pyrazolo[3,4-d]pyrimidin-4-amine bis(trifluoroacetate)] was at most 500 nM; that for `Cc1c(Cl)cc(C(C)n2nc(C)c3c(N)ncnc32)c2c1CN(C1CCCC1)CCO2` (stereo not drawn) [Example 6, 1-[1-(7-Chloro-4-cyclopentyl-6-methyl-2,3,4,5-tetrahydro-1,4-benzoxazepin-9-yl)ethyl]-3-methyl-1H-pyrazolo[3,4-d]pyrimidin-4-amine bis(trifluoroacetate)] was at most 500 nM; that for `Cc1c(Cl)cc(C(C)n2nc(C)c3c(N)ncnc32)c2c1CN(C(C)C)CCO2` (stereo not drawn) [Example 10, 1-[1-(7-Chloro-4-isopropyl-6-methyl-2,3,4,5-tetrahydro-1,4-benzoxazepin-9-yl)ethyl]-3-methyl-1H-pyrazolo[3,4-d]pyrimidin-4-amine bis(trifluoroacetate)] was at most 500 nM. On the same count and under the same terms, to `Cc1c(Cl)cc(C(C)n2nc(C)c3c(N)ncnc32)c2c1CN(C(=O)CC#N)CCO2` (stereo not drawn) [Example 12, 3-[9-[1-(4-Amino-3-methyl-1H-pyrazolo[3,4-d]pyrimidin-1-yl)ethyl]-7-chloro-6-methyl-2,3-dihydro-1,4-benzoxazepin-4(5H)-yl]-3-oxopropanenitrile trifluoroacetate] belongs at most 500 nM; to `Cc1c(Cl)cc(C(C)n2nc(C)c3c(N)ncnc32)c2c1CN(S(C)(=O)=O)CCO2` (stereo not drawn) [Example 13, 1-{1-[7-Chloro-6-methyl-4-(methylsulfonyl)-2,3,4,5-tetrahydro-1,4-benzoxazepin-9-yl]ethyl}-3-methyl-1H-pyrazolo[3,4-d]pyrimidin-4-amine Trifluoroacetate], at most 500 nM; to `Cc1c(Cl)cc(C(C)n2nc(C)c3c(N)ncnc32)c2c1CN(S(=O)(=O)C1CC1)CCO2` (stereo not drawn) [Example 18, 1-{1-[7-Chloro-4-(cyclopropylsulfonyl)-6-methyl-2,3,4,5-tetrahydro-1,4-benzoxazepin-9-yl]ethyl}-3-methyl-1H-pyrazolo[3,4-d]pyrimidin-4-amine Trifluoroacetate], 500 to 1000 nM. Under “Homo sapiens, SU-DHL-6, 72 h”, `CCC(=O)N1CCOc2c(C(C)n3nc(C)c4c(N)ncnc43)cc(Cl)c(C)c2C1` (stereo not drawn) [Example 20, 1-[1-(7-Chloro-6-methyl-4-propionyl-2,3,4,5-tetrahydro-1,4-benzoxazepin-9-yl)ethyl]-3-methyl-1H-pyrazolo[3,4-d]pyrimidin-4-amine Trifluoroacetate] had an IC50 of at most 500 nM.

Turning to `COCC(=O)N1CCOc2c(C(C)n3nc(C)c4c(N)ncnc43)cc(Cl)c(C)c2C1` (stereo not drawn) [Example 21, 1-{1-[7-Chloro-4-(methoxyacetyl)-6-methyl-2,3,4,5-tetrahydro-1,4-benzoxazepin-9-yl]ethyl}-3-methyl-1H-pyrazolo[3,4-d]pyrimidin-4-amine Trifluoroacetate], for the setting “Homo sapiens, SU-DHL-6, 72 h”, the IC50 is at most 500 nM. Still for that read-out and setting: to `Cc1c(Cl)cc(C(C)n2nc(C)c3c(N)ncnc32)c2c1CN(c1ncc(C#N)s1)CCO2` (stereo not drawn) [Example 23, 2-[9-[1-(4-Amino-3-methyl-1H-pyrazolo[3,4-d]pyrimidin-1-yl)ethyl]-7-chloro-6-methyl-2,3-dihydro-1,4-benzoxazepin-4(5H)-yl]-1,3-thiazole-5-carbonitrile Trifluoroacetate] belongs at most 500 nM; to `Cc1c(Cl)cc(C(C)n2nc(C)c3c(N)ncnc32)c2c1CN(c1cnccn1)CCO2` (stereo not drawn) [Example 24, 1-[1-(7-Chloro-6-methyl-4-pyrazin-2-yl-2,3,4,5-tetrahydro-1,4-benzoxazepin-9-yl)ethyl]-3-methyl-1H-pyrazolo[3,4-d]pyrimidin-4-amine bis(trifluoroacetate)], 500 to 1000 nM.

Where the note is “Homo sapiens, SU-DHL-6, 72 h”, `CC(=O)N1CC(N2CCOc3c(C(C)n4nc(C)c5c(N)ncnc54)cc(Cl)c(F)c3C2)C1` (stereo not drawn) [Example 34, 1-{1-[4-(1-Acetylazetidin-3-yl)-7-chloro-6-fluoro-2,3,4,5-tetrahydro-1,4-benzoxazepin-9-yl]ethyl}-3-methyl-1H-pyrazolo[3,4-d]pyrimidin-4-amine] came in with an IC50 of at most 500 nM. Compound `Cc1nn(C(C)c2cc(Cl)c(F)c3c2O[C@@H](C)CN(C2CC(C(=O)O)C2)C3)c2ncnc(N)c12` (stereo partly drawn) [Example 41, 3-[9-[1-(4-Amino-3-methyl-1H-pyrazolo[3,4-d]pyrimidin-1-yl)ethyl]-7-chloro-6-fluoro-2-methyl-2,3-dihydro-1,4-benzoxazepin-4(5H)-yl]cyclobutanecarboxylic Acid Trifluoroacetate] registered an IC50 (Homo sapiens, SU-DHL-6, 72 h) of at most 500 nM. For `Cc1nn(C(C)c2cc(Cl)c(F)c3c2O[C@@H](C)CN(C2CC(C(=O)O)C2)C3)c2ncnc(N)c12` (stereo partly drawn) [Example 42, 3-[9-[1-(4-Amino-3-methyl-1H-pyrazolo[3,4-d]pyrimidin-1-yl)ethyl]-7-chloro-6-fluoro-2-methyl-2,3-dihydro-1,4-benzoxazepin-4(5H)-yl]cyclobutanecarboxylic Acid Trifluoroacetate], the IC50 was at most 500 nM. Compound `CC(=O)N1CC(N2CCOc3c(C(C)n4nc(C)c5c(N)ncnc54)cc(Cl)c(C#N)c3C2)C1` (stereo not drawn) [Example 46, 4-(1-Acetylazetidin-3-yl)-9-[1-(4-amino-3-methyl-1H-pyrazolo [3,4-d]pyrimidin-1-yl)ethyl]-7-chloro-2,3,4,5-tetrahydro-1,4-benzoxazepine-6-carbonitrile] displayed an IC50 (Homo sapiens, SU-DHL-6, 72 h) of at most 500 nM. `Cc1nn(C(C)c2cc(Cl)c(C#N)c3c2OCCN(C2CN(CCO)C2)C3)c2ncnc(N)c12` (stereo not drawn) [Example 47, 9-[1-(4-amino-3-methyl-1H-pyrazolo[3,4-d]pyrimidin-1-yl)ethyl]-7-chloro-4-[1-(2-hydroxyethyl)azetidin-3-yl]-2,3,4,5-tetrahydro-1,4-benzoxazepine-6-carbonitrile]: the IC50 (Homo sapiens, SU-DHL-6, 72 h) was at most 500 nM.

As to `Cc1nn(C(C)c2cc(Cl)c(C#N)c3c2OC(C)CN(C2CN(CC(N)=O)C2)C3)c2ncnc(N)c12` (stereo not drawn) [Example 51, 2-{3-[9-[1-(4-Amino-3-methyl-1H-pyrazolo[3,4-d]pyrimidin-1-yl)ethyl]-7-chloro-6-cyano-2-methyl-2,3-dihydro-1,4-benzoxazepin-4(5H)-yl]azetidin-1-yl}acetamide], the IC50 was at most 500 nM.
